We go through 26 compounds from patent US20230331720A1, “MEDIUM- OR MACRO-CYCLIC BENZYL-SUBSTITUTED HETEROCYCLE DERIVATIVES AND THEIR USES AS OREXIN-2 RECEPTOR AGONISTS” (Orexia Therapeutics Limited, priority 2020, published 2023).

The test concerns the target T1, human orexin type 2 receptor (hOX2R) (Homo sapiens, UniProt O43614).
T1 construct: expressed in transfected cells
T1 sequence (O43614 1-444): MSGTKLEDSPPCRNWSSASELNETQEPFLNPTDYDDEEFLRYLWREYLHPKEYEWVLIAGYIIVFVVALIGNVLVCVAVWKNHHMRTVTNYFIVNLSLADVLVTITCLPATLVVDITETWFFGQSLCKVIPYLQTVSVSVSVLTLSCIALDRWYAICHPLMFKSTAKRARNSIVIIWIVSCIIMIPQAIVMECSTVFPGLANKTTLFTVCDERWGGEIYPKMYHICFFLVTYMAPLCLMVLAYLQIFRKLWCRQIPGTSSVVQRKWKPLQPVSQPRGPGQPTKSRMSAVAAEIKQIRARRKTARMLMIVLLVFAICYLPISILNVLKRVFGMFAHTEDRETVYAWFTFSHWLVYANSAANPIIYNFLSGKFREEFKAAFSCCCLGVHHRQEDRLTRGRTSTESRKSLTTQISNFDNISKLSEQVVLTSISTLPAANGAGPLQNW
In words: Orexin type 2 receptor agonist activity, intracellular Ca2+ (FLIPR TETRA). The class given is cell-based. The note with it: CHO cells expressing hOX2R; Ca2+ fluorescence area; read-out: hOx2 pEC50 (converted). The protocol: Stable cell line generation. Obtainment of cells stably expressing either human orexin type 2 or human orexin type 1 receptor; to obtain a stable cell line the Orexin receptor cDNA was inserted into pcDNA3.1(+) plasmid vector and clones identified by G418 drug resistance selection. […] A single clone for OX2R-CHO and OX1R-CHO were grown in bulk and frozen to generate a cell bank for routine screening.
Measurement of orexin type 2 receptor agonist activity. Chinese hamster ovary (CHO) cells expressing human orexin type 2 receptor (hOX2R) or human orexin type 1 receptor (hOX1R) were seeded in each well of 384 well black clear bottom plates (BD Flacon) at 10,000 cells per well and cultured for 24 hr in an Ham's F12 (Gibco) medium containing 10% fetal calf serum (Sigma Aldrich) under the conditions of 37° C., 5% CO2. After removal of the medium, 50 μl of assay buffer 1 (0.1% bovine serum albumin (Sigma Aldrich), 20 mM HEPES (Molecular Dimensions), […] probenecid (Sigma Aldrich), 1× Calcium 5 dye (Molecular Devices) in Hank's balanced salt solution (Invitrogen)) was added, and the cells were incubated for 60 min under the conditions of 37° C., 5% CO2. A test compound was dissolved in dimethyl sulfoxide (Sigma Aldrich) to 10 mM, and then diluted with assay buffer 2 (20 mM HEPES, Hank's balanced salt solution, 0.1% bovine serum albumin). For the reaction, a test compound solution (10 μl) was added using Fluorescent Imaging Plate Reader TETRA (FLIPR TETRA: manufactured by Molecular Devices), a fluorescence value (excitation wavelength 488 nm, measurement wavelength 570 nm) of each well was measured every one second for 2 min, and the agonist activity was determined using the area of the fluorescence value as an indicator of intracellular Ca^2+ concentration. The agonist activity of the test compound was calculated assuming that the fluorescence value of the well added with only the dilution buffer was 0% and the fluorescence value of the well added with 10 nM human orexin A (Tocris) buffer was 100%. As used herein, Emax indicates the value at 10 μM concentration when orexin A is converted to a full agonist (maximum value of agonist activity: 100%).
As to `CCS(=O)(=O)NC1CCN2C(=O)CCC/C=C/c3ccccc3-c3cccc(c3)CC12` (mixture of isomers) [Compound A1-36, (E/Z)—N-(5-oxo-4(2,1)-pyrrolidina-1(1,2),2(1,3)-dibenzenacyclodecaphan-9-en-4^3-yl)ethanesulfonamide], the EC50 is 100 to 1000 nM.

`CS(=O)(=O)NC1CCCN2C(=O)CCCCc3ccccc3-c3cccc(c3)CC12` (racemic) [Compound A1-1, N-(5-oxo-4(2,1)-piperidina-1(1,2),2(1,3)-dibenzenacyclononaphane-4^3-yl)-methanesulfonamide]: the EC50 is 100 to 1000 nM.

For the compound `CN1CCOc2ccccc2-c2cccc(c2)CC2C(NS(C)(=O)=O)CCCN2C1=O` (racemic) [Compound A1-2, N-(6-methyl-5-oxo-9-oxa-6-aza-4(2,1)-piperidina-1(1,2),2(1,3)-dibenzena-cyclo-nonaphane-4^3-yl)methanesulfonamide], the EC50 is 100 to 1000 nM.

With `CS(=O)(=O)N[C@@H]1CCCN2C(=O)CCCOc3ccccc3-c3cccc(c3)C[C@H]12` (racemic) [Compound A1-6, N-(5-oxo-9-oxa-4(2,1)-piperidina-1(1,2),2(1,3)-dibenzenacyclononaphane-4^3-yl)methanesulfonamide], the EC50 was 10 to 100 nM.

`CS(=O)(=O)NC1CCN2C(=O)N3CC(CCc4ccccc4-c4cccc(c4)CC12)C3` (racemic) [Compound A1-13, N-(5-oxo-4-(2,1)-pyrrolidina-6-(1.3)-azetidina-1-(1,2),2-(1,3)-dibenzena-cyclooctaphane-4^3-yl)methanesulfonamide]: the EC50 was 10 to 100 nM.

`CS(=O)(=O)NC1CCN2C(=O)N3CC(CCCc4ccccc4-c4cccc(c4)CC12)C3` (racemic) [Compound A1-14, N-(5-oxo-4(2,1)-pyrrolidina-6(1,3)-azetidina-1(1,2),2(1,3)-dibenzenacyclo-nonaphane-4^3-yl)methanesulfonamide]: the EC50 is 10 to 100 nM.

For the compound `CS(=O)(=O)NC1CCCN2C(=O)NCCOc3ccccc3-c3cccc(c3)CC12` (racemic) [Compound A1-15, N-(5-oxo-9-oxa-6-aza-4(2,1)-piperidina-1(1,2),2(1,3)-dibenzenacyclo-nonaphane-4^3-yl)methanesulfonamide], the EC50 was 1 to 10 nM.

As for `CCS(=O)(=O)NC1CCN2C(=O)NCCCCCc3c(F)cc(F)cc3-c3cccc(c3)CC12` (racemic) [Compound A1-16, N-(1^3,1^5-difluoro-5-oxo-6-aza-4(2,1)-pyrrolidina-1-(1,2),2-(1,3)-dibenzena-cycloundecaphane-4^3-yl)ethanesulfonamide], the EC50 was 10 to 100 nM.

`CCS(=O)(=O)NC1CCN2C(=O)N(C)CCCCCc3ccccc3-c3cccc(c3)CC12` (racemic) [Compound A1-18, N-(6-methyl-5-oxo-6-aza-4(2,1)-pyrrolidina-1(1,2),2(1,3)-dibenzenacyclo-undecaphane-43-yl)ethanesulfonamide]: the EC50 is 1 to 10 nM.

`CCS(=O)(=O)NC1CCN2C(=O)CCCc3ccccc3-c3cccc(c3)CC12` (racemic) [Compound A1-19, N-(5-oxo-4(2,1)-pyrrolidina-1(1,2),2(1,3)-dibenzenacyclooctaphane-4^3-yl)ethanesulfonamide]: the EC50 is 100 to 1000 nM.

As to `CCS(=O)(=O)NC1CCN2C(=O)CCOCCCc3ccccc3-c3cccc(c3)CC12` (racemic) [Compound A1-20, N-(5-oxo-8-oxa-4(2,1)-pyrrolidina-1(1,2),2(1,3)-dibenzenacyclo-undecaphane-4^3-yl)ethanesulfonamide], the EC50 was 100 to 1000 nM.

As for `CCS(=O)(=O)NC1CCN2C(=O)CC/C=C\c3ccccc3-c3cccc(c3)CC12` (racemic) [Compound A1-26, (E/Z)—N-(5-oxo-4(2,1)-pyrrolidina-1(1,2),2(1,3)-dibenzenacyclononaphan-8-en-4^3-yl)ethanesulfonamide], the EC50 was 100 to 1000 nM.

For the compound `CS(=O)(=O)NC1CCCN2C(=O)NCCCCCc3ccccc3-c3cccc(c3)CC12` (racemic) [Compound A1-27, N-(5-oxo-6-aza-4(2,1)-piperidina-1(1,2),2(1.3)-dibenzenacyclo-undecaphane-4^3-yl)methanesulfonamide], the EC50 is 1 to 10 nM.

In the case of `CS(=O)(=O)NC1CCCN2C(=O)CCCCCCc3ccccc3-c3cccc(c3)CC12` (racemic) [Compound A1-28, N-(5-oxo-4(2,1)-piperidina-1(1,2),2(1,3)-dibenzenacycloundecaphane-4^3-yl)methanesulfonamide], the EC50 is 10 to 100 nM.

For the compound `CCS(=O)(=O)NC1CCN2C(=O)CCCCCCc3c(F)cc(F)cc3-c3cccc(c3)CC12` (racemic) [Compound A1-29, N-(1^3,1^5-difluoro-5-oxo-4(2,1)-pyrrolidina-1(1,2),2(1,3)-dibenzenacyclo-undecaphane-4^3-yl)ethanesulfonamide], the EC50 is 100 to 1000 nM.

Turning to `CCS(=O)(=O)NC1CCN2C(=O)NCCOc3ccccc3-c3cccc(c3)CC12` (racemic) [Compound A1-30, N-(5-oxo-9-oxa-6-aza-4(2,1)-pyrrolidina-1(1,2),2(1,3)-dibenzenacyclo-nonaphane-4^3-yl)ethanesulfonamide], the EC50 was 10 to 100 nM.

As for `CCS(=O)(=O)NC1CCN2C(=O)CCCOc3ccccc3-c3cccc(c3)CC12` (racemic) [Compound A1-31, N-(5-oxo-9-oxa-4(2,1)-pyrrolidina-1(1.2),2(1,3)-dibenzenacyclo-nonaphane-4^3-yl)ethanesulfonamide], the EC50 is 100 to 1000 nM.

Turning to `CCS(=O)(=O)NC1CCN2C(=O)CCCCCCc3ccccc3-c3cccc(c3)CC12` (racemic) [Compound A1-39, N-(5-oxo-4(2,1)-pyrrolidina-1(1,2),2(1,3)-dibenzenacycloundecaphane-4^3-yl)ethanesulfonamide], the EC50 was 1 to 10 nM.

Regarding `CCS(=O)(=O)NC1CCN2C(=O)CCC/C=C/Cc3ccccc3-c3cccc(c3)CC12` (racemic) [Compound A1-41, (E/Z)—N-(5-oxo-4(2,1)-pyrrolidina-1(1.2),2(1,3)-dibenzenacyclo-undecaphan-9-en-4^3-yl)ethanesulfonamide], the EC50 was 10 to 100 nM.

Regarding `CCS(=O)(=O)NC1CCN2C(=O)CCCCCc3ccccc3-c3cccc(c3)CC12` (racemic) [Compound A1-48, N-(5-oxo-4(2,1)-pyrrolidina-1(1,2),2(1,3)-dibenzenacyclodecaphane-4^3-yl)ethanesulfonamide], the EC50 was 10 to 100 nM.

With `CCS(=O)(=O)NC1CCN2C(=O)NCCCCc3ccccc3-c3cccc(c3)CC12` (racemic) [Compound A1-49, N-(5-oxo-6-aza-4(2,1)-pyrrolidina-1(1,2),2(1,3)-dibenzenacyclodecaphane-4^3-yl)ethanesulfonamide], the EC50 is 10 to 100 nM.

As for `CCS(=O)(=O)NC1CCN2C(=O)NCCCCCc3ccccc3-c3cccc(c3)CC12` (racemic) [Compound A1-50, N-(5-oxo-6-aza-4(2,1)-pyrrolidina-1(1,2),2(1,3)-dibenzenacyclo-undecaphane-43-yl)ethanesulfonamide], the EC50 was 1 to 10 nM.

Regarding `CCS(=O)(=O)NC1CCN2C(=O)NC/C=C/Cc3ccccc3-c3cccc(c3)CC12` (racemic) [Compound A1-51, (E/Z)—N-(5-oxo-6-aza-4(2,1)-pyrrolidina-1(1,2),2(1.3)-dibenzenacyclo-decaphan-8-en4^3-yl)ethanesulfonamide], the EC50 was 10 to 100 nM.

Turning to `CCS(=O)(=O)NC1CCN2C(=O)NCC/C=C/Cc3ccccc3-c3cccc(c3)CC12` (racemic) [Compound A1-52, (E/Z)—N-(5-oxo-6-aza-4(2,1)-pyrrolidina-1(1,2),2(1.3)-dibenzenacyclo-undecaphan-9-en-43-yl)ethanesulfonamide], the EC50 was 1 to 10 nM.

On to `CCS(=O)(=O)NC1CCN2C(=O)CC/C=C/Cc3ccccc3-c3cccc(c3)CC12` (racemic) [Compound A1-53, (E/Z)—N-(5-oxo-4(2,1)-pyrrolidina-1(1,2),2(1,3)-dibenzenacyclodecaphan-8-en-4^3-yl)ethanesulfonamide], for which the EC50 is 10 to 100 nM.

For the compound `CCS(=O)(=O)NC1CCN2C(=O)OCCCCCc3ccccc3-c3cccc(c3)CC12` (racemic) [Compound A1-54, N-(5-oxo-6-oxa-4(2,1)-pyrrolidina-1(1,2),2(1.3)-dibenzenacyclo-undecaphane-4^3-yl)ethanesulfonamide], the EC50 was 10 to 100 nM.
